Experimental data: patent US20260193272A1, “SELENIUM CONTAINING HETEROCYCLE COMPOUNDS AND USE THEREOF” (HELIOS HUAMING BIOPHARMA CO., LTD., priority 2022, published 2026)

These compounds were tested against T1, PAD4 enzyme (Homo sapiens, UniProt Q9UM07) (assay: In-vitro measurement for enzymatic PAD4 citrullination inhibition activity (ammonia release)). Details: read-out: IC50 of inhibition enzymatic activity of PAD4 (Colorimetric assays, Nature Chemical Biology, 2015, 11: 189-191).
T1 construct: PAD4 enzyme was diluted to 30 nM in Assay Buffer
T1 sequence (Q9UM07 whole entry): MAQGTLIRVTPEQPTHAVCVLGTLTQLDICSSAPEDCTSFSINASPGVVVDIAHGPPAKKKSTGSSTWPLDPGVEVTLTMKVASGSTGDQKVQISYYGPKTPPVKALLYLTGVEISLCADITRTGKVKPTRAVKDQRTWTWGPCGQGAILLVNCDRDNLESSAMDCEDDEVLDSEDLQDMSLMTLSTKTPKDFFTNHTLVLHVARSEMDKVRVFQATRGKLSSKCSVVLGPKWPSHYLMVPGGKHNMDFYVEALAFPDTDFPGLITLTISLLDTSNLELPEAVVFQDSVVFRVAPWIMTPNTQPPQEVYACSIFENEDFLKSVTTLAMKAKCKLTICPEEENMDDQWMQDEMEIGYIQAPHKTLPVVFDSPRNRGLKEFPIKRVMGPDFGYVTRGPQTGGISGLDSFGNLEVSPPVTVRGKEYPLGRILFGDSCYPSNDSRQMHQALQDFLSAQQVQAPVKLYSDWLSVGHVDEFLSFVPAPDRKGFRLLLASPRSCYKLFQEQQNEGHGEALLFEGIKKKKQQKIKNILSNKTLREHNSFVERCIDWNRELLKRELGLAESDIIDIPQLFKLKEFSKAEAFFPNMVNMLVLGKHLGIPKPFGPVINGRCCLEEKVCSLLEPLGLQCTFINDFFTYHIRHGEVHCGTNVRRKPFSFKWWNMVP
Type: biochemical
Description: Citrullination was detected via ammonia release based on published methodology (Nature Chemical Biology, 2015, 11: 189-191).
PAD4 enzyme was diluted to 30 nM in Assay Buffer (100 mM HEPES, 50 mM NaCl, 2 mM DTT, 0.6 mg/ml BSA, pH 8) and added to wells containing various concentrations of compound or DMSO vehicle (0.8% final) in a high-volume black 96-well plate (Greiner). Following a 60-min preincubation at 27° C., the reaction was initiated by the addition of substrate (3 mM BAEE in 100 mM HEPES, 50 mM NaCl, […] CaCl2, 2 mM DTT, pH 8). The reaction was stopped after 90 min by the addition of stop/detection buffer containing 50 mM EDTA, 2.6 mM o-phthalaldehyde and 2.6 mM DTT. Assays were incubated at 27° C. for 120 min before measuring fluorescence (λex 410/λem 476) on an Envision plate reader (PerkinElmer). After which IC50 values were calculated using GraphPad Prism 8.0.
COc1cc(C(=O)N2C[C@H](N)CC[C@@H]2C)cc2nc(-c3cc4[se]c(C)nc4n3CC3CCC3)n(C)c12 [HH-15] gave an IC50 of at most 0.05 µM. COc1cc(C(=O)N2C[C@H](N)C[C@@H](F)C2)cc2nc(-c3cc4[se]c(-c5cccc(C)c5)nc4n3CC3CC3)n(C)c12 [HH-46] gave an IC50 of over 0.5 µM. For COc1cc(C(=O)N2C[C@H](N)C[C@@H](F)C2)cn2nc(-c3cc4[se]c(C)nc4n3CC3CC3)c(C)c12 [HH-69], the IC50 was 0.05 to 0.1 µM. COc1cc(C(=O)N2C[C@H](N)CC[C@@H]2C)cc2nc(-c3cc4[se]c(-c5ccccn5)nc4n3CC3CC3)n(C)c12 [HH-43] gave an IC50 of 0.1 to 0.5 µM. COc1cc(C(=O)N2C[C@H](N)CC[C@@H]2C)cc2nc(-c3cc4[se]c(C)nc4n3CC(C)(C)C)n(C)c12 [HH-22] gave an IC50 of 0.1 to 0.5 µM. For CCc1nc2c(cc(-c3nc4cc(C(=O)N5C[C@H](N)CC[C@@H]5C)cc(OC)c4n3C)n2CC2CC2)[se]1 [HH-2], the IC50 was at most 0.05 µM. COc1cc(C(=O)N2C[C@H]3CC[C@@H]2[C@@H]3N)cc2nc(-c3cc4[se]c(C)nc4n3CC3CC3)n(C)c12 [HH-9] showed an IC50 of at most 0.05 µM. COc1ccccc1-c1nc2c(cc(-c3nc4cc(C(=O)N5C[C@H]6CC[C@@H]5[C@@H]6N)cc(OC)c4n3C)n2CC2CC2)[se]1 [HH-39] showed an IC50 of over 0.5 µM. Compound COc1cc(C(=O)N2C[C@H]3CC[C@@H]2[C@@H]3N)cc2nc(-c3cc4[se]c(-c5ccccn5)nc4n3CC3CC3)n(C)c12 [HH-44] has an IC50 of 0.1 to 0.5 µM. COc1cc(C(=O)N2C[C@H](N)C[C@@H](F)C2)cc2nc(-c3cc4[se]c(C5CC5)nc4n3CC3CC3)n(C)c12 [HH-5] gave an IC50 of at most 0.05 µM. COc1cc(C(=O)N2C[C@H](N)CC[C@@H]2C)cc2nc(-c3cc4[se]c(C)nc4n3CC3CC3)n(C)c12 [HH-8] showed an IC50 of at most 0.05 µM. Work on COc1cc(C(=O)N2C[C@H](N)CC[C@@H]2C)cc2nc(-c3cc4[se]c(C)nc4n3Cc3ccc(C(F)(F)F)cc3)n(C)c12 [HH-28] yielded an IC50 of over 0.5 µM. COc1ccc(-c2nc3c(cc(-c4nc5cc(C(=O)N6C[C@H](N)C[C@@H](F)C6)cc(OC)c5n4C)n3CC3CC3)[se]2)cc1 [HH-40] was tested, and the IC50 was 0.1 to 0.5 µM. With COc1cc(C(=O)N2C[C@H](N)CC[C@@H]2C)cc2nc(-c3cc4[se]c(-c5ccccn5)cc4n3CC3CC3)n(C)c12 [HH-62] the IC50 was 0.05 to 0.1 µM.
